What was measured:
[1] = system: KRAS G12A NSCLC CDX model NCI-H2009; assay: In vivo CDX xenograft efficacy, NCI-H2009; design: species or system Balb/c nude mice; conditions: oral
Procedure: (§1) The vehicle/control article, 0.5% Methyl Cellulose & 0.1% Tween 80 or 100 mM acetic acid in deionized water with pH adjustment to 4.8-5.0, was prepared and stored under ambient conditions throughout the study period.
(§2) The test article, compound 1, was freshly prepared in vehicle of 0.5% Methyl Cellulose & 0.1% Tween 80 weekly and stored under ambient conditions. The combination agent, compound 2, was freshly prepared in vehicle of 100 mM acetic buffer weekly and stored under ambient conditions.
(§3) Female Balb/c nude mice were purchased from the Beijing Vital River Laboratory Animal Technology Co., Ltd. Mice were hosted at special pathogen-free (SPF) environment of vivarium facility and acclimated to their new environment for at least 3 days prior to initiation of any experiments. Mice were between 6-8 weeks of age at the time of implantation.
(§4) NCI-H2009 is a human NSCLC cell line that harbored a KRAS^G12A mutation. The NCI-H2009 cell line was purchased from the American Type Culture Collection (ATCC® CRL-5911). NCI-H2009 cells were cultured in medium containing RPMI-1640 plus 10% Fetal Bovine Serum (FBS) and supplemented with Glutamax and pyruvate at 37° C. in an atmosphere of 5% CO2 in air. NCI-H2009 cells in 100 μL cell suspensions containing 5×10^6 cells mixed with 50% Matrigel were implanted into mice subcutaneously. When tumor volumes reached a mean of 200 mm^3, tumor-bearing mice were randomized into different groups with 8 mice in each group and treatment started on the day of randomization.
(§5) Mice were dosed by oral administration of vehicle control solution, compound 1, or compound 2 in monotherapy treatment groups. Mice were dosed by oral administration of combinations, including compound 1 with compound 2. The dosing volume was 5 mL/kg for each compound and interval of BID regimen was 8 hours. In the combination of compound 1 with compound 2, compound 1 was dosed at one-hour post compound 2 QD or first BID dose. […] The study was terminated at the end of 4-week treatment or when tumor volume in vehicle control group reached 2,000 mm^3.

[2] = system: KRAS G12V NSCLC CDX model NCI-H441; assay: In vivo CDX xenograft efficacy, NCI-H441; design: species or system Balb/c nude mice; conditions: oral
Procedure: as §1, §2, §3
as §4, with “NCI-H441” for “NCI-H2009”, “harbors” for “harbored”, “KRAS^G12V” for “KRAS^G12A”, “HTB-174™). NCI-H441” for “CRL-5911). NCI-H2009”, “(FBS),” for “(FBS) and supplemented with Glutamax and pyruvate”, “200” for “100”
as §5

For `Cc1cnc(NC2CCOCC2)nc1-n1cnc(C(=O)N[C@H](CN)c2cc(F)cc(Cl)c2)c1` [Compound 1, (S)—N-(2-amino-1-(3-chloro-5-fluorophenyl)ethyl)-1-(5-methyl-2-((tetrahydro-2H-pyran-4-yl)amino)pyrimidin-4-yl)-1H-imidazole-4-carboxamide], the TGI ([1]; monotherapy 30 mg/kg BID) was 93%, the TGI ([2]; monotherapy 30 mg/kg BID) was 115% and the TGI ([2]; monotherapy 30 mg/kg QD) was 94%.

Compound `COCOC[C@H]1C[C@H]2COc3c(Sc4cnc(N5CCC6(CC5)CO[C@@H](C)[C@H]6N)c(CO)n4)ccnc3N2C1` [Compound 2, (3-((3S,4S)-4-amino-3-methyl-2-oxa-8-azaspiro[4.5]decan-8-yl)-6-(((6aS,8S)-8-((methoxymethoxy)methyl)-6a,7,8,9-tetrahydro-6H-pyrido[3,2-b]pyrrolo[1,2-d][1,4]oxazin-4-yl)thio)pyrazin-2-yl)methanol] has a TGI ([1]; monotherapy 15 mg/kg QD) of 73%, a TGI ([1]; monotherapy 30 mg/kg QD) of 90% and a TGI ([2]; monotherapy 15 mg/kg QD) of 87%. For the same compound, the TGI ([2]; monotherapy 30 mg/kg QD) was 101%.
